Measured values reported in patent US20030109537A1, “Methods and materials for treating bone conditions” (priority 2001, published 2003).

Columns and labels:
Serum chemistry and PTH = format: in vivo, rat; details: rats
Method: Treatment protocol. Three month-old female Sprague-Dawley rats were divided into 4 groups. In group 1 (n=9), osmotic pumps that delivered vehicle alone at a rate of 1 μl/hr for 7 days were implanted in each rat. […] In groups 3 and 4 (n=8 and 10, respectively), osmotic pumps were implanted in each rat that delivered 40 μg/kg/day hPTH at a rate of 1 μl/hr for 7 days. […] Tetracycline (20 mg/kg, Sigma Chemical Co., St. Louis, Mo.) and calcein (20 mg/kg, Sigma) fluorochrome labels were injected at the base of the tail on day 0 (tetracycline) and day 6 (calcein). On day 8, all rats were anesthetized and blood was collected by cardiac puncture. The blood samples were used to determine serum chemistry and PTH levels. Following blood collection, the rats were sacrificed by cervical dislocation, and tibiae were surgically removed and fixed in 70% ethanol for bone histomorphometry.
Serum chemistry and PTH. Total serum calcium, phosphate, and magnesium levels were measured in rat blood samples by Central Clinical Laboratory Research at the Mayo Clinic using automated procedures. Serum PTH was measured using an immunoradiometric assay for rat PTH (Immunotopics International, LLC, San Clementa, Calif.) that has approximately 100% cross-reactivity to human PTH.
Serum and bone samples were collected after 7 days and analyzed.

[1] = system: osteoblasts and peritrabecular fibroblasts; assay: 3H-thymidine autoradiography; format: in vivo, rat; details: continuous PTH 1 week with continuous 3H-thymidine infusion, rats
Method: ^3H-thymidine autoradiography was performed to determine the role of cell proliferation in contributing to the increases in osteoblasts and fibroblasts following continuous administration of PTH. ^3H-thymidine was infused continuously for the entire 1-week duration of PTH treatment in order to label all proliferating cells. […] Thus, it seems that PTH-induced osteoblasts and fibroblasts originate by different cellular pathways.

[2] = system: rat model for parathyroid bone disease; assay: Rat model for parathyroid bone disease: pulsatile vs continuous PTH, bone histomorphometry; format: in vivo; details: rats
[3] = day 8, trapidil 40 mg/kg/day s.c. 7 days, hPTH 40 μg/kg/day continuous by osmotic pump 7 days, mean ± SEM
[4] = continuous PTH 40 μg/kg/day osmotic pump 7 days
[5] = continuous PTH 40 μg/kg/day osmotic pump 7 days, vs untreated control
[6] = continuous PTH infusion 40 μg/kg/d

human PTH (1-34)
serum chemistry effect of continuous PTH (Serum chemistry and PTH; continuous PTH 40 μg/kg/day 7 days): induced hypercalcemia and hyperparathyroidism
Serum Calcium (Serum chemistry and PTH; [3]): 11.65 ± 0.28^ab mg/dl
Serum Magnesium (Serum chemistry and PTH; [3]): 2.49 ± 0.04 mg/dL
Serum PTH (Serum chemistry and PTH; [3]): 98.27 ± 11.12^ab pg/ml
Serum Phosphorus (Serum chemistry and PTH; [3]): 7.95 ± 0.48 mg/dL
3H-thymidine labeling of PTH-induced osteoblasts [1]: unlabeled
3H-thymidine labeling of most of the peritrabecular fibroblasts induced by PTH [1]: labeled
time to increase in 3H-proline incorporation into bone matrix proteins ([2]; PTH s.c. 80 μg/kg/d): ≤ 24 h
time to increase in the number of fully mature osteoblasts ([2]; PTH s.c. 80 μg/kg/d): ≤ 3 days
time to upregulation of mRNA levels for bone matrix proteins (type I collagen, osteonectin, osteocalcin) ([2]; PTH s.c. 80 μg/kg/d): ≤ 16 h
Marrow fibrosis [2, 4]: Extensive^b
Osteoid surface [2, 4]: Extensive^b
Bone formation rate [2, 5]: ↑^a
Osteoblast perimeter [2, 5]: ↑^a
Osteoclast perimeter [2, 5]: ↑^b
mRNA levels for one matrix proteins [2, 5]: ↑^a
detrimental skeletal effects of continuous PTH [2, 6]: extensive peritrabecular fibrosis, osteomalacia, increased bone formation, and focal bone resorption
systemic side effects on reducing the dose rate [2, 6]: greatly reduced systemic side effects
systemic effects of continuous release ([2]; hPTH infused continuously 80 μg/kg/d, s.c. osmotic pump): severe hypercalcemia and weight loss
daily PTH pulse duration at which detrimental side effects were observed ([2]; programmed implantable osmotic pump, same quantity of PTH): ≥ 2 h
Bone formation rate ([2]; pulsatile PTH 80 μg/kg/day s.c. once daily 7 days, vs untreated control): ↑^a
effect on serum calcium levels ([2]; subcutaneous PTH 80 μg/kg/d): no effect
